Measurements: patent US12357582B2, “Hydrophobic ion pairing and flash nanoprecipitation for formation of controlled-release nanocarrier formulations” (The Trustees of Princeton University, priority 2017, dated 2025)

Experiments:
[1] = Ion-pairing screening using gentamicin API; type: physicochemical; design: key to Reprecipitation: + details reprecipitation observed; − details no reprecipitation observed; key to Organic Dissolution: ++ details complete dissolution; + details non-complete dissolution; key to Precipitation: +++: + details qualitative observations of the amount of solid formed; ++: + details qualitative observations of the amount of solid formed; + details qualitative observations of the amount of solid formed; − details no solids formed; conditions: for Precipitation: gentamicin API mixed with IP in water; for Reprecipitation: gentamicin:IP organic solution diluted ten-fold in water; for Organic Dissolution: gentamicin:IP pellet in organic solvent (THF)
Method: (§1) The fifteen ion pairing (IP) reagents listed above were screened to assess if hydrophobic API salt forms would be formed and would precipitate from solution. Ion pair and API drug properties were calculated with Molinspiration software (Molinspiration Cheminformatics, Slovakia). APIs were dissolved in water at 5 mg mL^−1 concentration and mixed with IPs dissolved in water at varying concentrations to yield different API to IP ratios. The screening process determines whether a particular IP may be used with a given API for NC formation.
(§2) In the case of pre-ion pairing, API and IP are mixed in water to form a water-insoluble precipitate (referred to as an API:IP complex). The water is then removed, and the API:IP complex is dissolved into an organic solvent (along with a block copolymer) for use in the organic stream in FNP. In this case, the API:IP complex is treated as a component in the organic stream of normal FNP. The screening process for the pre-ion paired method FNP involves four sequential tests. • 1. The first test examines the solubility of the IP agent. IP is added to DI water at a concentration that would be required for a 1:1 API:IP charge ratio if the API were dissolved at 5 mg mL^−1. (In this text the ratios are presented as charge ratios of API:IP.) Substantial […] in water is required for successful ion pairing. • 2. The second test examines whether an in situ API:IP complex can be formed in a single step. For example, The second test examines whether solids precipitate upon mixing of the aqueous IP solution with an aqueous API solution. Alternatively, IP in an organic, but water miscible, solution is mixed against the aqueous API solution. The final solution is checked visually to see if precipitation has occurred. In this test, the IP solution is at a concentration such that mixing equal volumes of IP solution and API solution will form a 1:1 API to IP charge ratio. Four API:IP ratios are investigated: 200 μL API solution is mixed with 100 μL IP solution for a 1:0.5 charge ratio; 200 μL API solution is mixed with 200 μL IP solution for a 1:1 charge ratio; 200 μL API solution is mixed with 400 μL IP solution for a 1:2 charge ratio; and 200 μL API solution is mixed with 800 μL IP solution for a 1:4 charge ratio. • 3. The third test examines whether the API:IP complex can be solubilized in the organic phase for subsequent FNP NC formation. Pellets of the precipitate formed in the second test are tested to see if they are soluble in a water-miscible organic solvent such as tetrahydrofuran (THF) or more polar solvents such as dimethyl sulfoxide (DMSO) or methanol (MeOH). For example, if precipitates were formed in the second test, the mixture can be centrifuged at 20800 rcf for 20 minutes, and the aqueous supernatant can be removed in order to recover pelleted precipitate. 200 μL of organic solvent can be added to the pellet; the solution can then be mixed to determine whether the pellet dissolves. • 4. The final (fourth) test assesses if the hydrophobic API:IP complex will re-precipitates when mixed with water, e.g., upon FNP mixing with water as the antisolvent. The organic solvent containing API:IP from the third test is diluted ten-fold in water, and precipitate formation is examined. If a precipitate forms, then the construct is suitable for use in FNP. In Situ Ion Pairing
Several water-soluble counter ion salts IPs were chosen for this investigation to determine the physical properties of the counter ions required for successful complex formation (FIG. 3). A range of carboxylate and sulfonate salt IPs whose acid forms have pKa ranging 5 to −1.9 were tested, as well as salts with a wide range of solubilities and LogP values as high as 7.6 or as low as −4.92. API was dissolved at 5 mg mL^−1 in water in 1× volume, and rapidly mixed with 1× volume of dissolved IP to give a final mixture containing a 1:1 API:IP charge ratio. Mixtures were visually observed to assess if precipitates rapidly formed. […]

[2] = Ion-pairing screening using polymyxin B API; type: physicochemical; design: key to Reprecipitation: + details re-precipitation observed; − details no re-precipitation observed; key to Organic Dissolution: ++ details complete dissolution; + details non-complete dissolution; key to Precipitation: +++: + details qualitative observations of the amount of solid formed; ++: + details qualitative observations of the amount of solid formed; + details qualitative observations of the amount of solid formed; − details no solids formed; conditions: for Precipitation: polymyxin B API mixed with IP in water; for precipitation upon mixing and NC formation: FIG. 4, polymyxin; for Reprecipitation: polymyxin B:IP organic solution diluted ten-fold in water; for Organic Dissolution: polymyxin B:IP pellet in organic solvent (THF)
Method: as §1, §2
Several water-soluble counter ion salts IPs were chosen for this investigation to determine the physical properties of the counter ions required for successful complex formation (FIG. 3). A range of carboxylate and sulfonate salt IPs whose acid forms have pKa ranging 5 to −1.9 were tested, as well as salts with a wide range of solubilities and LogP values as high as 7.6 or as low as −4.92. API was dissolved at 5 mg mL^−1 in water in 1× volume, and rapidly mixed with 1× volume of dissolved IP to give a final mixture containing a 1:1 API:IP charge ratio. Mixtures were visually observed to assess if precipitates rapidly formed.

[3] = API release from NCs by dialysis (BCA assay); type: physicochemical
Method: Drug concentrations were determined with the bicinchoninic acid (BCA) assay (Spectramax i3x, Molecular Devices) with absorbance measurements at 562 nm, using a standard curve of the same drug (unencapsulated) as the reference. API fractional release was determined by dialyzing NC sample in 100-fold 1×PBS. […] The drug concentration in each aliquot was determined by the BCA assay at 562 nm. The released fraction is the API concentration at each time point divided by the initial API concentration before dialysis (Eq. 2).
API release rates from NCs are a critical determinant of dosing frequency, in vivo active concentrations, and overall therapeutic effectiveness. The release rates of polymyxin B were assessed by enclosing NCs in an 8 kDa MWCO dialysis bag and diluting into a thousand-fold excess volume of PBS to simulate an “open sink” condition at room temperature. Encapsulated polymyxin within dialysis bags was measured over time, using the BCA assay, to determine the amount of API that had been released (FIGS. 7A, 7B, and 7C).

[4] = ambient temperature; cited from earlier work
cells = experiment: Lysozyme activity after release (ability to lyse cells); type: biochemical
[5] = Particle size and polydispersity by dynamic light scattering; type: physicochemical; conditions: PCL5k-b-PEG5k NPs
[6] = OVA with at least one charge equivalent of quaternary ammonium surfactant

O=S(=O)(O)c1ccccc1 [Benzenesulfonic Acid Monohydrate, benzenesulfonic acid monohydrate]
Precipitation [1]: −
Precipitation [2]: −

CCCCCCCCCCCCOS(=O)(=O)[O-].[Na+] [Sodium Dodecyl Sulfate, sodium dodecyl sulfate]
Precipitation [1]: +++
Reprecipitation [1]: +
Organic Dissolution [1]: ++
precipitation upon mixing and NC formation [2]: rapid precipitation and successful NC formation
Precipitation [2]: +++
Reprecipitation [2]: +
Organic Dissolution [2]: ++

CCCCCCCCCC(=O)[O-].[Na+] [Sodium Decanoate, sodium decanoate]
Precipitation [1]: +
Precipitation [2]: ++
Reprecipitation [2]: −

CCCCCCCCCCS(=O)(=O)[O-].[Na+] [Sodium 1-Decanesulfonate, sodium 1-decanesulfonate]
Precipitation [1]: +++
Reprecipitation [1]: +
Organic Dissolution [1]: ++
Precipitation [2]: +++
Reprecipitation [2]: +
Organic Dissolution [2]: ++

O=S(=O)([O-])CCS(=O)(=O)[O-].[Na+].[Na+] [Sodium 1,2-Ethanedisulfonate, sodium 1,2-ethanesulfonate]
Precipitation [1]: −
Precipitation [2]: −

CCCCCCCCCCCCCC(=O)[O-].[Na+] [Sodium Myristate, sodium myristate]
Precipitation [1]: −
Precipitation [2]: ++

sodium deoxycholate
Precipitation [1]: ++
Precipitation [2]: +++

O=S(=O)([O-])c1ccc2ccccc2c1.[Na+] [Sodium 2-Naphthalenesulfonate, sodium 2-naphthalenesulfonate]
Precipitation [1]: ++
Reprecipitation [1]: −
Organic Dissolution [1]: ++
Precipitation [2]: ++
Reprecipitation [2]: −
Organic Dissolution [2]: ++

CCCCCCCC/C=C\CCCCCCCC(=O)[O-].[Na+] [Sodium Oleate, sodium oleate]
Precipitation [1]: −
precipitation upon mixing and NC formation [2]: rapid precipitation and successful NC formation
Precipitation [2]: +++
Reprecipitation [2]: +
Organic Dissolution [2]: ++

CCCCCC(=O)[O-].[Na+] [Sodium Hexanoate, Sodium hexanoate]
Precipitation [1]: −
Precipitation [2]: −

CCCCCCCCS(=O)(=O)[O-].O.[Na+] [Sodium 1-Octanesulfonate Monohydrate, sodium 1-octanesulfonate monohydrate]
Precipitation [1]: ++
Reprecipitation [1]: −
Organic Dissolution [1]: ++
Precipitation [2]: +++
Reprecipitation [2]: −
Organic Dissolution [2]: ++

CCCCCCCCCCCCc1ccc(S(=O)(=O)[O-])cc1.[Na+] [Sodium Dodecylbenzenesulfonate, sodium dodecylbenezenesulfonate]
Precipitation [1]: +++
Reprecipitation [1]: +
Organic Dissolution [1]: ++
precipitation upon mixing and NC formation [2]: rapid precipitation and successful NC formation
Precipitation [2]: +++
Reprecipitation [2]: +
Organic Dissolution [2]: ++

Mastoparan 7 [MP7, reference compound]
characteristic release time (time for 50% release) ([3]; MP7, NPs are MP7:SDS 1:1 PCL5k-b-PEG5k): 2.9 h

CCCCCCCC/C=C\CCCCCCCC(=O)O [Oleic acid, oleic acid]
solubility in water [4]: ~3e-07 g/g

CC1(C)C2CC[C@]1(CS(=O)(=O)O)C(=O)C2 [(1R)-(-)-10-Camphorsulfonic Acid, (1R)-(−)-10-camphorsulfonic acid]
Precipitation [1]: −
Precipitation [2]: −

CCCCCCCS(=O)(=O)[O-].[Na+] [Sodium 1-Heptanesulfonate, sodium 1-heptanesulfonate]
Precipitation [1]: −
Precipitation [2]: +
Reprecipitation [2]: −
Organic Dissolution [2]: +

Lysozyme [LYZ]
LYZ released by 14 days ([3]; NPs with OA, 1:2 charge ratio): 20%
LYZ released by 14 days ([3]; NPs with OA, 1:4 charge ratio): 10%
LYZ released by 14 days ([3]; NPs with SDS, 1:1 charge ratio): 50%
released LYZ with activity equal to LYZ that was never encapsulated (cells; following release from NPs, over all formulations): up to 100%
released LYZ that was bioactive (cells; paired 1:1 with DXS): 100%
released LYZ that was bioactive (cells; paired 1:1 with OA): 100%
released LYZ that was bioactive (cells; paired 1:1 with SDS): approximately 60%
released LYZ that was bioactive (cells; paired 1:2 with DXS): approximately 60%
released LYZ that was bioactive (cells; paired 1:2 with OA): 100%
released LYZ that was bioactive (cells; paired 1:2 with SDS): < 10%
released LYZ that was bioactive (cells; paired 1:4 with DXS): approximately 60%
released LYZ that was bioactive (cells; paired 1:4 with OA): approximately 60%
released LYZ that was bioactive (cells; paired 1:4 with SDS): < 10%
NP diameter ([5]; LYZ pre-formed with SDS or DXS): ~150 nm
PDI ([5]; LYZ pre-formed with SDS or DXS): < 0.2

B1: Ovalbumin (protein, UniProt P01012 2-386, looked up)
Ovalbumin: GSIGAASMEFCFDVFKELKVHHANENIFYCPIAIMSALAMVYLGAKDSTRTQINKVVRFDKLPGFGDSIEAQCGTSVNVHSSLRDILNQITKPNDVYSFSLASRLYAEERYPILPEYLQCVKELYRGGLEPINFQTAADQARELINSWVESQTNGIIRNVLQPSSVDSQTAMVLVNAIVFKGLWEKAFKDEDTQAMPFRVTEQESKPVQMMYQIGLFRVASMASEKMKILELPFASGTMSMLVLLPDEVSGLEQLESIINFEKLTEWTSSNVMEERKIKVYLPRMKMEEKYNLTSVLMAMGITDVFSSSANLSGISSAESLKISQAVHAAHAEINEAGREVVGSAEAGVDAASVSEEFRADHPFLFCIKHIATNAVLFFGRCVSP
notes: anionic protein, 385 amino acid residues, 43,000 Da
NP diameter [5, 6]: ~150 nm
PDI [5, 6]: < 0.2
